In paper PMC6615598, “Novel antibiotics effective against gram-positive and -negative multi-resistant bacteria with limited resistance” (PLoS Biology, 2019):
Starred links: 1 amine or outer side, 2 acyl side, 3 side chain; linkers in the order of their positions; H or OH if unused. Non-standard residues stand in square brackets, D forms with d. Residues, ends and D or L forms follow the SMILES beside them. azaβ3(1Nal) = O=C(CN(Cc1cccc2ccccc12)N[*:1])[*:2]

Legend:
[1] = Stability in mouse serum (half-life); format: in vitro ADME; conditions: 25% mouse serum, pre-incubated 15 min at 37°C, peptide 10^−4 M, RP-HPLC peak areas, mean of biological triplicates
Procedure: (§1) (10−4 M final concentrations). At selected time intervals, 100 μl of reaction mixture was collected, quenched by 200 μl 95% EtOH, and adjusted at pH 2 to prevent peptide adsorption to serum proteins. […] Supernatants were analyzed by RP-HPLC on an Xbridge C18 column with a linear gradient of water, 0.08% TFA, and acetonitrile with 1% TFA. HPLC peak areas were used to calculate the percentages of intact compound remaining at the various time points. MIC and MBC values were determined in triplicate in many ESKAPE clinical isolates, including a dozen MDR S. aureus, by the broth microdilution method. Peptidomimetics and antibiotics were assayed in a concentration range of 1 to 128 μM. The bacterial inoculum (5 × 10^5 colony-forming units [CFUs]/well) was prepared in MHB or CAMHB (150 μl). A Biotek Synergy 2 spectrophotometer was used to record the results after 18–20 h incubation at 35°C (±2°C). […] After every hour of culture for 4 h, serial dilutions were plated on BHI plates and incubated overnight at 37°C, and then the CFUs were counted and expressed as log CFU/ml. Phosphate-buffered saline (PBS)-exposed S. aureus MRSA was included as a control.
(§2) Supplementary file pbio.3000337.s013.docx: S7 Table Peptide half-lives in human and mouse sera. […] Peptide amounts and half-lives were determined by HPLC. Experiments were conducted on 25% human or mouse sera. Values are shown in minutes. The mean values correspond to biological triplicates. HPLC, high pressure liquid chromatography. (DOCX) Click here for additional data file.

[2] = system: E. coli K12; assay: microbe, parasite or virus in culture
Procedure: (§3) For 15 d in MHB, MICs were determined daily for each pseudopeptide and their antibiotic controls. This was done using cells from the well in which the compound concentration was one-half of the MIC (1/2MIC). For each compound, the 1/2MIC well from the previous day’s MIC assay plate was re-suspended and the bacteria grown to a density of about 10^8 cells ml−1. The suspension was diluted in MHB or CAMHB (10^6 cells/ml) and then used to determine the MIC of the same compound determined by micro broth dilution. All MIC measurements were performed in duplicate. Aliquots of the 5 × 10^4 cell/ml dilutions for each 1/2MIC well were periodically plated on MHB and incubated at 35°C for 18 h to verify cell density by colony counts and for visual inspection of colony phenotypes. To control compound stability, peptide solution MICs were determined during and at the end of the 15 d and were compared to cells unexposed to antibiotics. In vivo resistance was also assessed in treated mice (1.5 mg.kg^−1) for 4 d (sepsis) or 6 d (skin abscesses). […] The broth microdilution method was performed as per EUCAST recommendations on 5 independent colonies per mouse (3 mice per set, 15 colonies per drug tested). For severe sepsis and subcutaneous abscesses, in vivo resistance was determined by plating aliquots of crude kidney extracts or abscesses on plates containing 1-, 2-, 4-, or 8-fold the peptide MICs 7 or 3 d post infections, respectively.

[3] = system: MSSA (Newman); assay: microbe, parasite or virus in culture; conditions: MSSA (Newman)
Procedure: as §3

[4] = system: E. coli MCR1; assay: microbe, parasite or virus in culture
Procedure: as §3

[5] = system: P. aeruginosa 15643; assay: microbe, parasite or virus in culture
Procedure: as §3

[6] = system: E. coli 13090; assay: microbe, parasite or virus in culture
Procedure: as §3

[7] = system: MRSA (Mu3); assay: microbe, parasite or virus in culture; conditions: MRSA (Mu3)
Procedure: as §3

[8] = system: S. aureus 702697 HOU; assay: microbe, parasite or virus in culture
Procedure: as §1
(§4) Supplementary file pbio.3000337.s007.docx: S1 Table Antibacterial activity of the 4 peptidomimetics focusing on 9 S. aureus MDR clinical isolates. Clinical isolates BCB/POE and 740404 DUN are from human sepsis. The other strains are from catheter infections or suppurating wounds. Brilacidin was used as a control. MDR, multidrug resistant. (DOCX) Click here for additional data file.

[9] = system: S. aureus ROUS; assay: microbe, parasite or virus in culture
Procedure: as §1, §4

[10] = system: S. aureus COB; assay: microbe, parasite or virus in culture
Procedure: as §1, §4

[11] = system: S. aureus FORT; assay: microbe, parasite or virus in culture
Procedure: as §1, §4

[12] = system: S. aureus 66534 E; assay: microbe, parasite or virus in culture
Procedure: as §1, §4

[13] = system: S. aureus 740404 DUN; assay: microbe, parasite or virus in culture
Procedure: as §1, §4

[14] = system: S. aureus BCB/POE; assay: microbe, parasite or virus in culture
Procedure: as §1, §4

[15] = system: S. aureus PM64; assay: microbe, parasite or virus in culture
Procedure: as §1, §4

[16] = Stability in human serum (half-life); format: in vitro ADME; conditions: 25% human serum, pre-incubated 15 min at 37°C, peptide 10^−4 M, RP-HPLC peak areas, mean of biological triplicates
Procedure: as §1, §2

[17] = E. coli K12, d0 of serial passages
[18] = E. coli K12, d14 of serial passages at sub-MIC
[19] = d14 of serial passages at sub-MIC
[20] = E. coli MCR1, d0 of serial passages
[21] = E. coli MCR1, d14 of serial passages at sub-MIC
[22] = P. aeruginosa 15643, d0 of serial passages
[23] = P. aeruginosa 15643, d14 of serial passages at sub-MIC
[24] = E. coli 13090, d0 of serial passages
[25] = E. coli 13090, d14 of serial passages at sub-MIC

Compound	half-life [1] [h]	MIC [2, 17]	MIC [2, 18]	MIC ([3]; d0 of serial passages)	MIC [3, 19]	MIC [4, 20]	MIC [4, 21]	MIC [5, 22]	MIC [5, 23]	MIC [6, 24]	MIC [6, 25]	MIC [7, 19]	half-life [16] [h]	further results
CC(C)[C@@H]1NC(=O)[C@H](CCCNC(=N)N)NC(=O)[C@H](CCCNC(=N)N)NC(=O)[C@H](Cc2c[nH]c3ccccc23)NC(=O)[C@H](Cc2ccccc2)NC(=O)[C@H](Cc2ccccc2)NC(=O)[C@H](CCCCN)NC1=O [Pep18] (cyclo(FFWRRVK))	8.5 ± 2.5	16 (16.4) μM	64 (65.6) μM	16 (16.4) μM	64 (65.6) μM	16 (16.4) μM	64 (65.6) μM	16 (16.4) μM	16 (16.4) μM	16 (16.4) μM	64 (65.6) μM	16 (16.4) μM	16.3 ± 1.67	MIC ([8]; MDR S. aureus clinical isolate 702697 HOU): 16 mg/L^-1; MIC ([9]; MDR S. aureus clinical isolate ROUS): 8 mg/L^-1; MIC ([10]; MDR S. aureus clinical isolate COB): 32 mg/L^-1; MIC ([11]; MDR S. aureus clinical isolate FORT): >32 mg/L^-1; MIC ([12]; MDR S. aureus clinical isolate 66534 E): 32 mg/L^-1; MIC ([13]; MDR S. aureus clinical isolate 740404 DUN, human sepsis): 32 mg/L^-1; MIC ([14]; MDR S. aureus clinical isolate BCB/POE, human sepsis): 32 mg/L^-1; MIC ([15]; MDR S. aureus clinical isolate PM64): 32 mg/L^-1
CC(C)[C@@H]1NC(=O)[C@H](CCCNC(=N)N)NC(=O)[C@H](CCCNC(=N)N)NC(=O)CN(Cc2cccc3ccccc23)NC(=O)[C@H](Cc2ccccc2)NC(=O)CN(Cc2cccc3ccccc23)NC(=O)[C@H](CCCCN)NC1=O [Pep19] (cyclo([azaβ3(1Nal)]F[azaβ3(1Nal)]RRVK))	9 ± 1.75	4 (4.4) μM	8 (8.8) μM	4 (4.4) μM	4 (4.4) μM	8 (8.8) μM	8 (8.8) μM	8 (8.8) μM	16 (16.2) μM	8 (8.8) μM	8 (8.8) μM	8 (8.8) μM	24.2 ± 4.33	MIC ([7]; d0 of serial passages): 4 (4.4) μM; MIC ([8]; 702697 HOU): 4 mg/L^-1; MIC ([9]; ROUS): 2 mg/L^-1; MIC ([10]; COB): 2 mg/L^-1; MIC ([11]; FORT): 8 mg/L^-1; MIC ([12]; 66534 E): 2 mg/L^-1; MIC ([13]; 740404 DUN): 8 mg/L^-1; MIC ([14]; BCB/POE): 8 mg/L^-1; MIC ([15]; PM64): 8 mg/L^-1
